Experimental data as given in ChEMBL document CHEMBL4831533, “Novel Substituted 1,6-Naphthyridines as CDK 5 Inhibitors for Treating Kidney Diseases” (ACS Med Chem Lett, 2021).

Target: Cyclin-dependent kinase 5/CDK5 activator 1 (Homo sapiens, UniProt Q00535)
Assay: Inhibition of full length human CDK5 (1 to 292 residues)/p25 expressed in baculovirus expression system using FL peptide 29 as a substrate preincubated for 30 mins followed by substrate addition incubated for 60 mins in the presence of ATP by mobility shift assay

Chain of Cyclin-dependent kinase 5/CDK5 activator 1 (Q00535 whole entry, the tested form may be a part): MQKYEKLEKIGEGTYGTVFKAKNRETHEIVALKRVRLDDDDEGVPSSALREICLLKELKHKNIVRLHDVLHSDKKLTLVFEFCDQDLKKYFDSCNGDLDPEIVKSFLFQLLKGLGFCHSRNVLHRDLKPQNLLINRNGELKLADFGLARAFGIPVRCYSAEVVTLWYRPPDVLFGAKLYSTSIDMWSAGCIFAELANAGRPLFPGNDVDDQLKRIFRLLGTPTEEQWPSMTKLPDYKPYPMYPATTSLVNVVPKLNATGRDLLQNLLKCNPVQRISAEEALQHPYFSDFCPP
Chain of Cyclin-dependent kinase 5/CDK5 activator 1 (Q15078 whole entry, further chain, the tested form may be a part): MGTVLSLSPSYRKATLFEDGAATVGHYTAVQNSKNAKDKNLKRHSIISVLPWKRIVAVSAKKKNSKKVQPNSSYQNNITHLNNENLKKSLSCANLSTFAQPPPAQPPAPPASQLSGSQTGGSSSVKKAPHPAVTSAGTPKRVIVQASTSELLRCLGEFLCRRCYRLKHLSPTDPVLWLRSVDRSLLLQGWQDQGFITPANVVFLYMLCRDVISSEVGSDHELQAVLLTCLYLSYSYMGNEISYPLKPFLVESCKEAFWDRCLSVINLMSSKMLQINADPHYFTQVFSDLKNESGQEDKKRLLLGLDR

| Compound | IC50 |
| --- | --- |
| CN1CCC(C(=O)c2ccc3cnc(Nc4ccc(-n5cccn5)cc4F)cc3n2)CC1 | < 10 nM |
| CN1CCC([C@@](C)(O)c2ccc3cnc(Nc4ccc(S(C)(=O)=O)cc4)cc3n2)CC1 | < 10 nM |
| CCOC(=O)c1cccc(Nc2cc3nc(SC4CCNCC4)ccc3cn2)c1 | < 10 nM |
| CN1CCC(S(=O)(=O)c2ccc3cnc(Nc4ccc(N5CCCS5(=O)=O)cc4)cc3n2)CC1 | < 10 nM |
| CN1CCC([C@@](C)(O)c2ccc3cnc(Nc4cccc(C(N)=O)c4)cc3n2)CC1 | < 10 nM |
| CN1CCC(N(CC(=O)O)c2ccc3cnc(Nc4cccc(S(N)(=O)=O)c4)cc3n2)CC1 | < 10 nM |
